In brackets after ≈: the same amount, converted by molar mass.
Legend:
Candida albicans = test: Antifungal activity against Candida albicans assessed as reduction in viability after 24 hrs by broth microdilution assay; assay type: functional
Leishmania amazonensis [1] = test: Antileishmanial activity against Leishmania amazonensis promastigotes assessed as reduction in parasite viability after 72 hrs by CCK-8 assay; assay type: functional, organism-based
Leishmania amazonensis [2] = test: Antileishmanial activity against Leishmania amazonensis MHOM/BR/75/Josefa promastigotes assessed as reduction in parasite viability after 72 hrs by Neubauer chamber counting method; assay type: functional, organism-based
Leishmania amazonensis [3] = test: Antileishmanial activity against Leishmania amazonensis MHOM/BR/75/Josefa intracellular amastigotes infected in CF-1 macrophages assessed as reduction in parasite viability after 72 hrs by optical microscopic method; assay type: functional, organism-based
Leishmania amazonensis [4] = test: Antileishmanial activity against Leishmania amazonensis MHOM/BR/77/LTB 0016 intracellular amastigotes infected in BALB/c Peritoneal macrophages assessed as reduction in parasite viability after 72 hrs by light microscopic method; assay type: functional, organism-based; details: MHOM/BR/77/LTB 0016, 72 h
Leishmania amazonensis [5] = test: Antileishmanial activity against Leishmania amazonensis MHOM/BR/77/LTB 0016 promastigotes assessed as reduction in parasite viability after 72 hrs by MTT assay; assay type: functional, organism-based; details: MHOM/BR/77/LTB 0016, 72 h
Leishmania donovani = test: Antileishmanial activity against Leishmania donovani LCR-133 promastigotes assessed as reduction in RNA synthesis at 95 uM preincubated for 30 mins followed by addition of 5-[3H]-uridine and measured up to 145 mins by liquid scintillation counting method relative o control; assay type: functional; set-up: scale not given: the % may be the effect or the level left
Leishmania mexicana = test: Antileishmanial activity against Leishmania mexicana intracellular amastigotes infected in J774 macrophages assessed as reduction in parasite viability after 72 hrs; assay type: functional, organism-based; details: J774, 72 h

C[C@@H]1C[C@@H](C)/C=C/C=C/C=C/C=C/C=C/C=C/C=C/[C@H](O[C@@H]2O[C@H](C)[C@@H](O)[C@H](N)[C@@H]2O)C[C@@H]2O[C@](O)(C[C@@H](O)C[C@@H](O)[C@H](O)CC[C@@H](O)C[C@@H](O)CC(=O)O[C@H]1C)C[C@H](O)[C@H]2C(=O)O
MIC (Candida albicans): 4 µM (≈ 3.63 µg/mL)

C[C@@H]1[C@H](O)[C@@H](C)/C=C/C=C/C=C/C=C/C=C/C=C/C=C/[C@H](O[C@@H]2O[C@H](C)[C@@H](O)[C@H](N)[C@@H]2O)C[C@@H]2O[C@](O)(C[C@@H](O)C[C@@H](O)[C@H](O)CC[C@@H](O)C[C@@H](O)CC(=O)O[C@H]1C)C[C@H](O)[C@H]2C(=O)O [AMPHOTERICIN B]
MIC (Candida albicans): 0.25 µM (≈ 0.231 µg/mL)

OC(Cn1cncn1)(Cn1cncn1)c1ccc(F)cc1F [FLUCONAZOLE]
IC50 (Leishmania amazonensis [1]): 10100 nM

CCC(C)n1ncn(-c2ccc(N3CCN(c4ccc(OCC5COC(Cn6cncn6)(c6ccc(Cl)cc6Cl)O5)cc4)CC3)cc2)c1=O (centres undefined) [ITRACONAZOLE]
IC50 (Leishmania amazonensis [2]): 440 nM
IC50 (Leishmania amazonensis [3]): 80 nM

CC(=O)N1CCN(c2ccc(OCC3COC(Cn4ccnc4)(c4ccc(Cl)cc4Cl)O3)cc2)CC1 (centres undefined) [KETOCONAZOLE]
IC50 (Leishmania amazonensis [4]): 6800 nM
IC50 (Leishmania amazonensis [5]): 2700 nM

CCCCCCCCCCCCCCCCOP(=O)([O-])OCC[N+](C)(C)C [MILTEFOSINE]
Activity (Leishmania donovani): 96.32%

CC(C)=CCC/C(C)=C/CNCCNC1C2CC3CC(C2)CC1C3 (centres undefined) [SQ109]
IC50 (Leishmania mexicana): 11 nM

— ChEMBL document CHEMBL4402528, “Multi-target drugs active against leishmaniasis: A paradigm of drug repurposing” (Eur J Med Chem, 2019)
